Source: patent US20090291999A1, “Agent Exhibiting a Neurotropic, Neuromodulator, Cerebrovascular and Anti-Stroke Activity” (AKHAPKINA, Valentina Ivanovna, priority 2006, published 2009)
Marks after values point to notes of the source that are not given here.

Assays:
[1] = Toxicity (LD30); settings: in vivo
[2] = Metabolism and excretion in the organism; settings: in vivo
[3] = tested on: rats with hemorrhagic stroke (intracerebral post-traumatic hematoma); assay: Hemorrhagic stroke model: burrow reflex; settings: HS rats, one-time administration; 1 day after operation
Method: (§1) Experiments have been conducted on white outbred male rats having weights from 200 to 250 grams. The rats have been held in vivarium conditions with free access to meals and water, under the natural change of days and nights. For the purpose of generating hemorrhagic stroke (HS) in rats narcotized with chloral hydrate (400 mg/Kg) stereotaxic craniotomy was conducted and then brain tissue in the capsula interna area was destructed with a mandarin knife, and blood (0.02 to 0.03 mL) taken under a rat tongue was injected into the place of destruction. Thus, local autohemorrhagic bilateral stroke was generated in the capsula interna area (diameter 2 mm, depth 3 mm) without damaging the above-located brain formations and neocortex. Falsely operated animals and animals with HS fed with a saline were used as the control animals. […]
The Phenotropil influence was evaluated for survivability of the animals, for the neurologic deficit level on the McGrow stroke-index scale in the modification of I. V. Gannushkina (1977) and in the Rotarod test, for muscular tonus maintenance in the test of chinning up on a horizontal bar, for orientation and exploration behavior in the open-field test. […] The latent time of the first entering in a dark chamber was registered when the burrow reflex maintenance was evaluated. […]

[4] = tested on: rats with hemorrhagic stroke (intracerebral post-traumatic hematoma); assay: Hemorrhagic stroke model: survivability of animals
Method: as §1
The Phenotropil influence was evaluated for survivability of the animals, for the neurologic deficit level on the McGrow stroke-index scale in the modification of I. V. Gannushkina (1977) and in the Rotarod test, for muscular tonus maintenance in the test of chinning up on a horizontal bar, for orientation and exploration behavior in the open-field test. […] The latent time of the first entering in a dark chamber was registered when the burrow reflex maintenance was evaluated.

[5] = tested on: rats with hemorrhagic stroke (intracerebral post-traumatic hematoma); assay: Hemorrhagic stroke model: neurologic deficit on McGrow's scale; settings: HS rats, 100 mg/Kg internally; 1 day after operation
Method: (§2) Experiments have been conducted on white outbred male rats having weights from 200 to 250 grams. The rats have been held in vivarium conditions with free access to meals and water, under the natural change of days and nights. For the purpose of generating hemorrhagic stroke (HS) in rats narcotized with chloral hydrate (400 mg/Kg) stereotaxic craniotomy was conducted and then brain tissue in the capsula interna area was destructed with a mandarin knife, and blood (0.02 to 0.03 mL) taken under a rat tongue was injected into the place of destruction. Thus, local autohemorrhagic bilateral stroke was generated in the capsula interna area (diameter 2 mm, depth 3 mm) without damaging the above-located brain formations and neocortex. Falsely operated animals and animals with HS fed with a saline were used as the control animals. Intragastric administration of Phenotropil at a dose of 100 mg/Kg was performed with the use of a special tube in 5 hours after the operation and then daily for 7 days at the time of the day±3 minutes.
(§3) The Phenotropil influence was evaluated for survivability of the animals, for the neurologic deficit level on the McGrow stroke-index scale in the modification of I. V. Gannushkina (1977) and in the Rotarod test, for muscular tonus maintenance in the test of chinning up on a horizontal bar, for orientation and exploration behavior in the open-field test. Study of cognitive functions was conducted on a standard unit for conditioned reflex of passive avoidance (CRPA). A test for CRPA repetition (for maintenance of a memory trail) was conducted in 24 hours after training as well as on the 3rd, 7th and 14th days after the operation. The latent time of the first entering in a dark chamber was registered when the burrow reflex maintenance was evaluated.

[6] = tested on: rats with hemorrhagic stroke (intracerebral post-traumatic hematoma); assay: Hemorrhagic stroke model: conditioned reflex of passive avoidance (CRPA); settings: for Latent time of entering into a dark chamber / Number of rats which did not entered a dark chamber: HS rats, 100 mg/Kg
Method: as §2, §3

[7] = tested on: rats with hemorrhagic stroke (intracerebral post-traumatic hematoma); assay: Hemorrhagic stroke model: open-field orientation-and-exploratory behavior; settings: for Exploration of holes / Horizontal motion activity / Total index / Vertical motion activity: HS + Phenotropil
Method: as §2, §3

[8] = repetition of the CRPA in 3 days
[9] = repetition of the CRPA in 7 days
[10] = repetition of the CRPA in 14 days

Which results are given for `NC(=O)CN1CC(c2ccccc2)CC1=O` (centres unmarked) [Phenotropil, N-carbomoyl-methyl-4-phenyl-2-pyrrolidon]?
LD30 [1]: 800 mg/kg; Metabolism in the organism [2]: not metabolized in the organism and goes out of it in the unchanged form; Latent time of entering into a dark chamber during training in the burrow reflex [3]: 30.6 ± 8.8; Effect on death of the animals ([4]; 100 mg/Kg once a day for 7 days, 14 days of observation): completely prevented death of the animals; Cases in which death of animals was prevented ([4]; hemorrhagic stroke, 100 mg/Kg): 100%; Number of animals with flabbiness, slowness of motions [5]: 50%; Number of animals with paresis of 1-4 limbs [5]: 30%; Number of animals with weakness of limbs [5]: 40* %; Increase of the latent time of entering the dark chamber in comparison to the HS-group ([6]; 100 mg/Kg one-time administration 5 hours after operation, CRPA one day after training): 48%; Increase of the number of animals with maintained memory in comparison to the HS-group ([6]; 100 mg/Kg one-time administration 5 hours after operation, after one day): 60%; Latent time of entering into a dark chamber ([6]; repetition of the CRPA in 24 hours after training): 101.1 ± 24.2 s; Number of rats which did not entered a dark chamber ([6]; repetition of the CRPA in 24 hours after training, 100 mg/kg): 40%; Latent time of entering into a dark chamber [6, 8]: 98.3 ± 18.7 s; Number of rats which did not entered a dark chamber [6, 8]: 40** %; Latent time of entering into a dark chamber [6, 9]: 75.2 ± 24.1 s; Number of rats which did not entered a dark chamber [6, 9]: 30** %; Latent time of entering into a dark chamber [6, 10]: 83.2 ± 26.7 s; Number of rats which did not entered a dark chamber [6, 10]: 40** %; Exploration of holes ([7]; 1st day after operation): 1.3 ± 0.5; Horizontal motion activity ([7]; 1st day after operation): 8.8 ± 3.5; Total index ([7]; 1st day after operation): 14.5 ± 5.5; Vertical motion activity ([7]; 1st day after operation): 4.4 ± 2.1; Exploration of holes ([7]; 3rd day after operation): 1.9 ± 0.7; Horizontal motion activity ([7]; 3rd day after operation): 15.2 ± 5.4; Total index ([7]; 3rd day after operation): 21.6 ± 6.1; Vertical motion activity ([7]; 3rd day after operation): 4.5 ± 1.5; Exploration of holes ([7]; 7th day after operation): 4.6 ± 1.3; Horizontal motion activity ([7]; 7th day after operation): 20.9 ± 4.1; Total index ([7]; 7th day after operation): 36.4 ± 5.6; Vertical motion activity ([7]; 7th day after operation): 10.9 ± 3.2; Exploration of holes ([7]; 14th day after operation): 3.0 ± 0.7; Horizontal motion activity ([7]; 14th day after operation): 12.2 ± 2.8; Total index ([7]; 14th day after operation): 22.1 ± 3.5; Vertical motion activity ([7]; 14th day after operation): 6.9 ± 1.9; Increase of total index of motion behavior compared to rats of the HS group ([7]; registered in 7 days): 2.7 times
